Patent US10047096B2, “Substituted pyridobenzodiazepinone-derivatives and use thereof” (Bayer Pharma Aktiengesellschaft, priority 2014, dated 2018)
pIC50: −log10 of the molar value.

Tests used:
human PDGFRβ = human PDGFRβ (Homo sapiens (Human), UniProt P09619); experiment: PDGFRβ kinase assay (PDGFRβ-HTRF); assay type: biochemical; conditions: 10 μM ATP; some mean values from multiple determinations
Summary of the method: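 GST-fused human PDGFRβ fragment (R561-L1106) from Sf9 cells was preincubated 15 min with compound in 50 mM HEPES pH 7.5, 10 mM MgCl2, 2.5 mM DTT, 0.01% Triton X-100; substrate was biotinylated poly-Glu,Tyr (4:1).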

[1] = target: pPDGFRβ in normal human dermal fibroblasts (NHDF) (Homo sapiens (Human), UniProt P09619); experiment: Cellular pPDGFRβ inhibition assay; assay type: cell-based; conditions: NHDF stimulated with 50 ng/ml PDGF-BB, 1 h
Chain of pPDGFRβ in normal human dermal fibroblasts (NHDF) (P09619 33-1106): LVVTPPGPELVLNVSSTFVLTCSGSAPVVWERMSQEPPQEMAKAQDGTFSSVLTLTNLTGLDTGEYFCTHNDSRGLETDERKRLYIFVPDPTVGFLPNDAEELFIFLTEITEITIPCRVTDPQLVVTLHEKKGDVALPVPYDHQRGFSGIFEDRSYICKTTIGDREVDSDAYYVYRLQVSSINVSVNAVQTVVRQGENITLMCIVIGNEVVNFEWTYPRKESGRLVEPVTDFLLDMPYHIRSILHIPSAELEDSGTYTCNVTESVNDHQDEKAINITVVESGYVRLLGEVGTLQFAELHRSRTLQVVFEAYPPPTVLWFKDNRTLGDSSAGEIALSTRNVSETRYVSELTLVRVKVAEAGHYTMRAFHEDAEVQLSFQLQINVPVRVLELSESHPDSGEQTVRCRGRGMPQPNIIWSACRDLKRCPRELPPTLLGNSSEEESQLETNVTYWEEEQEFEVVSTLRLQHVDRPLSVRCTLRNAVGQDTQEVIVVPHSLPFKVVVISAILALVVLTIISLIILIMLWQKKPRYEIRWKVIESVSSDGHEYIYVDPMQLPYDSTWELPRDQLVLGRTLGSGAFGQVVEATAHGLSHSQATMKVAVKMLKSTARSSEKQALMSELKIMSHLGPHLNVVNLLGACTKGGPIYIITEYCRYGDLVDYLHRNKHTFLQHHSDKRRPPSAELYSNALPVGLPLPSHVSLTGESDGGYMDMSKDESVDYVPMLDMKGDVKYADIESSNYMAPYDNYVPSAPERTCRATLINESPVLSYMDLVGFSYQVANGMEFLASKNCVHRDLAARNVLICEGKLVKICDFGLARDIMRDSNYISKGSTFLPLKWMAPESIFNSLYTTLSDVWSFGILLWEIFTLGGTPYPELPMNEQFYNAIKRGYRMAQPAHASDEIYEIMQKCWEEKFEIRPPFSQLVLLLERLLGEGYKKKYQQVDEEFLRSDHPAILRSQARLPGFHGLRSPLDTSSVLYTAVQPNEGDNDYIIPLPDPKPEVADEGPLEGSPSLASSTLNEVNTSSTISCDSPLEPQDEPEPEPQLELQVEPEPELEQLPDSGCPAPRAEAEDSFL
Protocol: Thereafter, 50 ng/ml recombinant human PDGF-BB (R&D Systems, Cat. No. 220-BB-050) and a dilution series of the test substances to be examined in DMSO were added to the cells. The total volume per well was 100 μl. After incubation under the abovementioned conditions for one hour, the Opti-MEM® I Reduced Serum Medium was tapped out and discarded. Subsequently, the lysis buffer [Phospho PDGFRβ (Tyr751) Assay Whole Cell Lysate Kit, MSD, Cat. No. K150DVD-2] was made up according to the manufacturer's instructions and 70 μl of this mixture per well were added. The lysed cell samples were either stored at −20° C. or analysed immediately after the lysis in a Meso Scale SECTOR® Imager 2400 according to the abovementioned manufacturer's instructions. The measurement data were presented as percentage PDGFRβ stimulation compared to PDGF-BB-stimulated but substance-untreated cells. The IC50 values were calculated by employing the nonlinear regression (curve fit) function of GraphPad Prism 6 (La Jolla, Calif., USA).

Chain of human PDGFRβ (P09619 561-1106): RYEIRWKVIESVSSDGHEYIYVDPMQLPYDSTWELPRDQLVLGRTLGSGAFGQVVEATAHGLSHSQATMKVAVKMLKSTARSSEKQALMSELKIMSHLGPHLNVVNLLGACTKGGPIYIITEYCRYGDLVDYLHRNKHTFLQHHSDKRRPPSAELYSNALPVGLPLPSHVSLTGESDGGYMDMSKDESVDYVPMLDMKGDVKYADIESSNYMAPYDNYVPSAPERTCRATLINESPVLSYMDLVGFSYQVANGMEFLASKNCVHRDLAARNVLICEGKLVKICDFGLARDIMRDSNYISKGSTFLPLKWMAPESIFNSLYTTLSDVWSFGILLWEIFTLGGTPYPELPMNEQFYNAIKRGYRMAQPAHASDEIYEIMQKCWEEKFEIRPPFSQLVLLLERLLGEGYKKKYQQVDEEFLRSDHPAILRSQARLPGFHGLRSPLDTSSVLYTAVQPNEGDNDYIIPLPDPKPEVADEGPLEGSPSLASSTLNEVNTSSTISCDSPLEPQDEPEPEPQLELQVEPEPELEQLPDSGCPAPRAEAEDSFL

`CCN(CC)Cc1ccc2c(c1)NC(=O)c1c(Nc3cc(O)c(Cl)cc3F)ccnc1N2` [Example 174, 4-[(4-Chloro-2-fluoro-5-hydroxyphenyl)amino]-8-[(diethylamino)methyl]-6,11-dihydro-5H-pyrido[2,3-b][1,5]benzodiazepin-5-one] showed a pIC50 (human PDGFRβ) of 8.90 and a pIC50 [1] of 6.97.

`Cc1cc(F)c(Nc2ccnc3c2C(=O)Nc2cc(CNC4CC(O)C4)ccc2N3)cc1O` (stereo not drawn) [Example 187, 4-[(2-Fluoro-5-hydroxy-4-methylphenyl)amino]-8-{[(3-hydroxycyclobutyl)amino]methyl}-6,11-dihydro-5H-pyrido[2,3-b][1,5]benzodiazepin-5-one] showed a pIC50 (human PDGFRβ) of 8.82 and a pIC50 [1] of 7.38.

Compound `Cc1cc(F)c(Nc2ccnc3c2C(=O)Nc2cc(CN(C)CCO)ccc2N3)cc1O` [Example 198, 4-[(2-Fluoro-5-hydroxy-4-methylphenyl)amino]-8-{[(2-hydroxyethyl)(methyl)amino]methyl}-6,11-dihydro-5H-pyrido[2,3-b][1,5]benzodiazepin-5-one] has a pIC50 (human PDGFRβ) of 9.02 and a pIC50 [1] of 7.30.

With `Cc1cc(F)c(Nc2ccnc3c2C(=O)Nc2cc(CN(C)C[C@H](C)O)ccc2N3)cc1O` [Example 202, 4-[(2-Fluoro-5-hydroxy-4-methylphenyl)amino]-8-({[(2S)-2-hydroxypropyl](methyl)amino}methyl)-6,11-dihydro-5H-pyrido[2,3-b][1,5]benzodiazepin-5-one] the pIC50 (human PDGFRβ) was 8.81 and the pIC50 [1] was 7.41.

Compound `Cc1cc(F)c(Nc2ccnc3c2C(=O)Nc2cc(CN(C)CCN)ccc2N3)cc1O` [Example 209, 8-{[(2-Aminoethyl)(methyl)amino]methyl}-4-[(2-fluoro-5-hydroxy-4-methylphenyl)amino]-6,11-dihydro-5H-pyrido[2,3-b][1,5]benzodiazepin-5-one] has a pIC50 (human PDGFRβ) of 9.13 and a pIC50 [1] of 6.67.

`Cc1cc(F)c(Nc2ccnc3c2C(=O)Nc2cc(CN4CCN(CC(F)F)CC4)ccc2N3)cc1O` [Example 227, 8-{[4-(2,2-Difluoroethyl)piperazin-1-yl]methyl}-4-[(2-fluoro-5-hydroxy-4-methylphenyl)amino]-6,11-dihydro-5H-pyrido[2,3-b][1,5]benzodiazepin-5-one] was tested, and the pIC50 (human PDGFRβ) was 8.20 and the pIC50 [1] was 6.26.
